Converted amounts (≈) assume the structure as drawn. Where two headings read alike, the source gives them in different places. Ends that are not written are not given here. Peptide text beside a SMILES is read from it.
Key:
B. subtilis = format: cell-based, Bacillus subtilis
Procedure: (§1) In certain embodiments the MIC assays are performed as described herein in the Examples. For each organism, the media and growth conditions utilized is detailed in Table 8.
(§2) In certain embodiments the MIC assays are performed as follows: For each organism, the media and growth conditions utilized is detailed in Table 8.

A. baumannii = format: cell-based, Acinetobacter baumannii; settings: A. baumannii; LB, 30° C., anaerobic, 10^5 CFU/ml
Procedure: as §1, §2

MRSA = format: cell-based, Staphylococcus aureus; settings: MRSA; BHI supplemented with 2% glucose, 37° C., aerobic, 10^5 CFU/ml
Procedure: as §1, §2

C. albicans = format: cell-based, Candida albicans
Procedure: as §1, §2

S. epidermidis = format: cell-based
Procedure: as §1, §2

T. rubrum = format: cell-based, Trichophyton rubrum
Procedure: as §1, §2

C. difficile = format: cell-based, Clostridium difficile
Procedure: as §1, §2

P. aeruginosa = format: cell-based, Pseudomonas aeruginosa; settings: P. aeruginosa; MH, 37° C., aerobic, 10^5 CFU/ml
Procedure: as §1, §2

A. niger = format: cell-based, Aspergillus niger
Procedure: as §1, §2

S. mutans = format: cell-based, Streptococcus mutans
Procedure: as §1, §2

A. naeslundii = format: cell-based, Actinomyces naeslundii
Procedure: as §1, §2

P. gingivalis = format: cell-based, Porphyromonas gingivalis
Procedure: as §1, §2

S. pneumoniae = format: cell-based, Streptococcus pneumoniae
Procedure: as §1, §2

E. coli = format: cell-based, Escherichia coli
Procedure: as §1, §2

With `CC[C@H](C)[C@H](NC(=O)CNC(=O)[C@@H](N)CCSC)C(=O)N[C@H](C(=O)N[C@@H](C)C(=O)NCC(=O)N[C@H](C(=O)N[C@H](C(=O)N[C@@H](CCCCN)C(=O)N[C@@H](Cc1ccccc1)C(=O)N[C@H](C(=O)N[C@@H](CCCCN)C(=O)NCC(=O)N[C@@H](CC(C)C)C(=O)N[C@H](C(=O)N[C@@H](CCC(=O)O)C(=O)N[C@@H](CCCCN)C(=O)N[C@@H](Cc1ccccc1)C(=O)N[C@H](C(=O)NCC(=O)N[C@@H](CCCCN)C(=O)O)[C@@H](C)O)[C@@H](C)CC)[C@@H](C)CC)[C@@H](C)CC)[C@@H](C)CC)[C@@H](C)CC` [PF-006] the MIC (B. subtilis; B. subtilis, BHI, 30° C., aerobic, 10^5 CFU/ml) was 25 µM (≈ 56.9 µg/mL), the MIC (A. baumannii) was 50 µM (≈ 114 µg/mL) and the MIC (MRSA) was 50 µM (≈ 114 µg/mL).

Work on `CC[C@H](C)[C@H](NC(=O)[C@H](CCCCN)NC(=O)[C@H](C)NC(=O)[C@H](Cc1ccccc1)NC(=O)[C@@H](NC(=O)[C@H](C)NC(=O)[C@H](CC(C)C)NC(=O)[C@H](CO)NC(=O)[C@@H](N)CC(C)C)[C@@H](C)O)C(=O)N[C@@H](Cc1ccccc1)C(=O)N[C@@H](CCSC)C(=O)N[C@H](C(=O)N[C@@H](CCCNC(=N)N)C(=O)N[C@@H](CO)C(=O)N[C@@H](CC(N)=O)C(=O)N[C@@H](Cc1c[nH]c2ccccc12)C(=O)N[C@@H](CO)C(=O)N[C@@H](CC(C)C)C(=O)N[C@@H](CCCCN)C(=O)N[C@@H](CCCNC(=N)N)C(=O)N[C@@H](Cc1ccccc1)C(=O)N[C@@H](CC(N)=O)C(=O)N[C@@H](CCCNC(=N)N)C(=O)N[C@@H](CC(C)C)C(=O)O)[C@@H](C)O` [PF-278] (H-LSLATFAKIFMTRSNWSLKRFNRL-OH; N-terminus and C-terminus assumed) yielded an MIC (C. albicans) of 50 µM, an MIC (S. epidermidis) of 50 µM and an MIC (T. rubrum) of 50 µM.

With `CC[C@H](C)[C@H](NC(=O)[C@H](CO)NC(=O)[C@H](CC(N)=O)NC(=O)[C@H](CCCNC(=N)N)NC(=O)[C@H](CC(N)=O)NC(=O)[C@H](CC(C)C)NC(=O)[C@H](CCCCN)NC(=O)[C@H](CCCCN)NC(=O)[C@H](CCCCN)NC(=O)[C@@H](NC(=O)[C@@H]1CCCN1C(=O)[C@H](CO)NC(=O)[C@H](CCCNC(=N)N)NC(=O)[C@@H](NC(=O)[C@H](CCCNC(=N)N)NC(=O)[C@@H](NC(=O)[C@@H](N)CCSC)[C@@H](C)CC)[C@@H](C)CC)[C@@H](C)O)C(=O)N[C@@H](CO)C(=O)N[C@@H](CC(=O)O)C(=O)N[C@@H](Cc1c[nH]c2ccccc12)C(=O)N[C@@H](CCCCN)C(=O)N[C@@H](CO)C(=O)N[C@@H](CC(N)=O)C(=O)N[C@H](C(=O)N[C@@H](CO)C(=O)NCC(=O)N[C@@H](CCCNC(=N)N)C(=O)N[C@@H](Cc1ccccc1)C(=O)N[C@@H](Cc1ccccc1)C(=O)N[C@@H](Cc1ccc(O)cc1)C(=O)O)[C@@H](C)O` [PF-283] (H-MIRIRSPTKKKLNRNSISDWKSNTSGRFFY-OH; N-terminus and C-terminus assumed) the MIC (B. subtilis) was 50 µM (≈ 182 µg/mL), the MIC (S. epidermidis) was 50 µM (≈ 182 µg/mL) and the MIC (T. rubrum) was 50 µM (≈ 182 µg/mL).

Work on `CC[C@H](C)[C@H](NC(=O)[C@H](CCCCN)NC(=O)CNC(=O)[C@H](CC(C)C)NC(=O)[C@H](CC(N)=O)NC(=O)[C@@H](NC(=O)[C@H](CCC(=O)O)NC(=O)[C@H](CC(C)C)NC(=O)[C@H](Cc1c[nH]c2ccccc12)NC(=O)[C@H](CC(=O)O)NC(=O)[C@@H](NC(=O)[C@H](CC(C)C)NC(=O)[C@H](CCC(=O)O)NC(=O)[C@@H](N)Cc1ccccc1)C(C)C)[C@@H](C)O)C(=O)N[C@@H](CC(C)C)C(=O)N[C@@H](CCCCN)C(=O)N[C@@H](CO)C(=O)N[C@@H](CCCCN)C(=O)N[C@@H](CO)C(=O)N[C@@H](C)C(=O)O` [PF-522] (H-FELVDWLETNLGKILKSKSA-OH; N-terminus and C-terminus assumed) yielded an MIC (C. difficile) of 25 µM (≈ 57.3 µg/mL).

With `CC[C@H](C)[C@H](NC(=O)[C@H](CCCNC(=N)N)NC(=O)[C@@H](NC(=O)[C@H](CCCCN)NC(=O)[C@H](CCCCN)NC(=O)[C@H](CC(C)C)NC(=O)[C@H](CC(C)C)NC(=O)[C@H](CCCCN)NC(=O)[C@H](CCCNC(=N)N)NC(=O)[C@H](Cc1c[nH]cn1)NC(=O)[C@H](CCCCN)NC(=O)[C@H](CCCCN)NC(=O)[C@H](CCCCN)NC(=O)[C@H](C)NC(=O)[C@H](CCSC)NC(=O)[C@H](CCCNC(=N)N)NC(=O)[C@H](CCCCN)NC(=O)[C@H](CCCNC(=N)N)NC(=O)[C@H](CCCNC(=N)N)NC(=O)[C@H](CCCCN)NC(=O)[C@H](CCCCN)NC(=O)[C@@H](NC(=O)[C@@H](NC(=O)[C@H](CO)NC(=O)CN)C(C)C)[C@@H](C)CC)[C@@H](C)O)C(=O)N[C@@H](CCC(N)=O)C(=O)N[C@@H](CCCNC(=N)N)C(=O)N[C@@H](CCCNC(=N)N)C(=O)N[C@@H](CCCNC(=N)N)C(=O)N[C@@H](C)C(=O)NCC(=O)N[C@@H](CCCCN)C(=O)O` [PF-527] (H-GSVIKKRRKRMAKKKHRKLLKKTRIQRRRAGK-OH; N-terminus and C-terminus assumed) the MIC (S. epidermidis; S. epidermidis, BHI supplemented with 0.25% glucose, 37° C., aerobic, 10^5 CFU/ml) was 25 µM (≈ 98.5 µg/mL), the MIC (P. aeruginosa) was 50 µM (≈ 197 µg/mL) and the MIC (MRSA) was 50 µM (≈ 197 µg/mL). For the same compound, the MIC (A. niger; A. niger, Potato Dextrose Agar, 25° C., aerobic, 10^5 CFU/ml) was 50 µM (≈ 197 µg/mL) and the MIC (T. rubrum; T. rubrum, Potato Dextrose Agar, 25° C., aerobic, 10^5 CFU/ml) was 25 µM (≈ 98.5 µg/mL).

`CC(C)[C@H](NC(=O)[C@H](CCCCN)NC(=O)[C@H](Cc1c[nH]c2ccccc12)NC(=O)CNC(=O)[C@@H](NC(=O)[C@H](CC(=O)O)NC(=O)[C@H](CO)NC(=O)[C@H](Cc1c[nH]cn1)NC(=O)CNC(=O)[C@@H]1CCCN1C(=O)[C@@H](NC(=O)[C@H](CCCNC(=N)N)NC(=O)[C@H](CO)NC(=O)[C@@H](N)Cc1c[nH]c2ccccc12)C(C)C)[C@@H](C)O)C(=O)N[C@@H](Cc1c[nH]c2ccccc12)C(=O)N[C@@H](Cc1c[nH]cn1)C(=O)N[C@@H](CCCNC(=N)N)C(=O)N[C@@H](Cc1c[nH]c2ccccc12)C(=O)O` [PF-547] (H-WSRVPGHSDTGWKVWHRW-OH; N-terminus and C-terminus assumed) was tested, and the MIC (B. subtilis) was 25 µM (≈ 56.9 µg/mL), the MIC (S. mutans) was 12.5 µM (≈ 28.5 µg/mL) and the MIC (T. rubrum) was 25 µM (≈ 56.9 µg/mL).

With `CC[C@H](C)[C@H](NC(=O)[C@H](CCCNC(=N)N)NC(=O)[C@@H]1CCCN1C(=O)[C@H](CCC(=O)O)NC(=O)[C@H](CC(C)C)NC(=O)[C@@H]1CCCN1C(=O)[C@H](CC(=O)O)NC(=O)[C@@H](N)CC(C)C)C(=O)N[C@@H](C)C(=O)N1CCC[C@H]1C(=O)N1CCC[C@H]1C(=O)NCC(=O)N[C@@H](CC(=O)O)C(=O)N[C@@H](CCCNC(=N)N)C(=O)N[C@@H](CO)C(=O)N[C@@H](Cc1c[nH]cn1)C(=O)N[C@@H](CCC(N)=O)C(=O)NCC(=O)N[C@@H](C)C(=O)N1CCC[C@H]1C(=O)N[C@@H](C)C(=O)N[C@@H](CS)C(=O)N[C@@H](Cc1c[nH]cn1)C(=O)N[C@@H](CCCNC(=N)N)C(=O)N[C@@H](CC(=O)O)C(=O)N1CCC[C@H]1C(=O)N[C@@H](CC(C)C)C(=O)N[C@@H](CCCNC(=N)N)C(=O)NCC(=O)N[C@@H](CCCNC(=N)N)C(=O)N[C@@H](CO)C(=O)N[C@@H](C)C(=O)N[C@@H](CCCNC(=N)N)C(=O)N[C@@H](CC(=O)O)C(=O)N[C@@H](C)C(=O)N[C@@H](CCC(=O)O)C(=O)N[C@@H](CCCNC(=N)N)C(=O)O` [PF-C019] (H-LDPLEPRIAPPGDRSHQGAPACHRDPLRGRSARDAER-OH; N-terminus and C-terminus assumed) the MIC (A. niger) was 50 µM (≈ 204 µg/mL), the MIC (S. mutans) was 25 µM (≈ 102 µg/mL) and the MIC (T. rubrum) was 50 µM (≈ 204 µg/mL).

For `CC(C)[C@H](NC(=O)[C@@H](N)Cc1ccc(O)cc1)C(=O)N[C@@H](CC(N)=O)C(=O)N[C@@H](Cc1ccc(O)cc1)C(=O)N[C@@H](CC(N)=O)C(=O)N[C@@H](CCC(N)=O)C(=O)N[C@@H](CO)C(=O)N[C@@H](Cc1ccccc1)C(=O)N[C@@H](CC(N)=O)C(=O)N[C@@H](CO)C(=O)NCC(=O)N[C@@H](Cc1c[nH]c2ccccc12)C(=O)O` [PF-C220] (H-YVNYNQSFNSGW-OH; N-terminus and C-terminus assumed), the MIC (C. albicans) was 50 µM (≈ 73.9 µg/mL).

Compound “MPVSKKRYMLSSAYATALGICYGQVATDEKESEITAIPDLLDYLSVEEYLL [PF-C163]” has an MIC (A. naeslundii) of 50 µM, an MIC (P. gingivalis) of 50 µM and an MIC (S. epidermidis) of 50 µM.

With “TKKIELKRFVDAFVKKSYENYILERELKKLIKAINEELPTK [PF-600]” the MIC (S. pneumoniae) was 50 µM and the MIC (E. coli) was 50 µM.
